Among the data in PubChem BioAssay (NCI) are TGI values, retold here.

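The compound was tested at five concentrations on cells cultured in 96-well plates, with a 48-hour exposure period. The concentration for full growth arrest is given as TGI.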

Holding throughout (test): NCI anticancer screen, dose series, 48 h
In assay [1] the test system is A549 NSCLC.
The test system of assay [2] is CAKI-1 renal.
For assay [3], the system named is EKVX NSCLC.
Assay [4] deals with HCC-2998 colon.
The test system of assay [5] is HCT-15 colon.
Assay [6] relates to HL-60(TB) leukemia.
For assay [7], the system named is HOP-92 NSCLC.
Assay [8] deals with IGROV1 ovarian.
In assay [9] the test system is MDA-MB-231 breast.
The test system of assay [10] is NCI/ADR-RES ovarian.
Assay [11] has as its system PC-3 prostate.
In assay [12] the test system is SF-268 CNS.
Assay [13] concerns SK-MEL-5 melanoma.
Assay [14] deals with SN12C renal.
In assay [15] the test system is U251 CNS.
The subject of assay [16] is UACC-257 melanoma.
The test system of assay [17] is UACC-62 melanoma.
In assay [18] the test system is CCRF-CEM leukemia.
Assay [19] deals with MOLT-4 leukemia.

Take `O=C(CC(C(=O)c1ccco1)c1cccs1)c1cccs1` (stereo unspecified): the TGI was greater than 100 µM in [1]; greater than 100 µM in assay [2]; 97.8 µM in [3]; greater than 100 µM in [4]; greater than 100 µM in assay [5]; 60.3 µM in assay [6]. For the same compound, the TGI in assay [7], in assay [8], in assay [9], in [10], in [11] and in assay [12] was greater than 100 µM throughout. Further, the TGI in assay [13], in assay [14], in assay [15], in [16] and in [17] was greater than 100 µM each time.

In the case of `CCn1c(-c2ccc(F)cc2)nc2c1C(=O)c1ccccc1C2=O`, the TGI in assay [1], in assay [18], in assay [3], in assay [4], in assay [5] and in [6] was greater than 100 µM throughout. Moreover, the TGI in assay [7], in assay [8], in [9], in assay [19], in assay [10] and in assay [11] was greater than 100 µM throughout. In addition, the TGI in [12], in assay [13], in assay [14], in [15], in [16] and in [17] was greater than 100 µM throughout.

Turning to `O=C(O)[C@@H]1CCC(=O)N1C(c1ccc2c(c1)OCO2)c1ccc2c(c1)OCO2`, the TGI in assay [1], in assay [2], in [3], in [4], in [5] and in assay [6] was greater than 100 µM throughout. The TGI in assay [7], in [8], in assay [9], in assay [19], in assay [10] and in assay [11] was greater than 100 µM in each case. The TGI in assay [12], in assay [13], in assay [14], in [15], in [16] and in assay [17] was greater than 100 µM each time.

Regarding `N#Cc1c(NCCc2ccc(F)cc2)c2ccccc2n2c1nc1ccccc12`, the TGI is greater than 100 µM in [1]; 29.1 µM in assay [2]; greater than 100 µM in assay [18]; 29.3 µM in assay [3]; greater than 100 µM in assay [4]; greater than 100 µM in assay [5]. Further, the TGI in assay [6] is greater than 100 µM; in assay [7], 19.8 µM; in [8] it was 39.9 µM; in assay [9], 36.3 µM; in [19], greater than 100 µM; in [10], 59.2 µM. Also, the TGI was 82.7 µM in assay [11]; 96.5 µM in [12]; greater than 100 µM in assay [14]; 61 µM in assay [15]; greater than 100 µM in [16]; 32.8 µM in [17].

For `O=c1[nH]c(=O)n(C2OC(CO)C(O)C2O)c2ccsc12` (stereo unspecified), the TGI in assay [1], in [2], in assay [18], in [3], in assay [4] and in assay [5] was greater than 100 µM each time. Further, the TGI in [6], in [7], in assay [8], in [9], in [19] and in assay [10] was greater than 100 µM in each case. Besides, the TGI in assay [11], in [12], in assay [13], in assay [14], in assay [15] and in assay [16] was greater than 100 µM throughout.

Consider `CCOC(=O)CC1(O)CCCCC1(Sc1ccc(C)cc1)Sc1ccc(C)cc1` (stereo unspecified), for which the TGI in [1], in [2], in [18], in assay [3], in [4] and in assay [5] was greater than 100 µM in each case. Moreover, the TGI in assay [6], in [7], in assay [9], in assay [19], in assay [10] and in assay [11] was greater than 100 µM each time. Also, the TGI in [12], in [13], in [14], in assay [15], in assay [16] and in assay [17] was greater than 100 µM throughout.

`O=C(c1ccc2ccccc2c1)N(Cc1cccnc1)C(=S)N(Cc1cccnc1)C(=O)c1ccc2ccccc2c1`: the TGI was greater than 100 µM in assay [1]; 44 µM in assay [2]; greater than 100 µM in assay [18]; 77.1 µM in assay [3]; 32 µM in assay [4]; greater than 100 µM in assay [5]. The TGI in assay [6] was greater than 100 µM; in assay [7], 69.7 µM; in assay [9], 44.1 µM; in assay [19] it was greater than 100 µM; in assay [10], 88.7 µM; in assay [11] it was greater than 100 µM. The TGI in assay [12] was 78.5 µM; in assay [13], 41.3 µM; in assay [14] it was greater than 100 µM; in assay [15] it was 38.6 µM; in assay [16], 48.7 µM; in [17] it was greater than 100 µM.

In the case of `COc1cc(C=C2N=C(c3ccccc3)N(n3c(-c4ccccc4)nc4ccccc4c3=O)C2=O)cc(OC)c1OC`, the TGI in assay [1] is greater than 100 µM; in [2], greater than 100 µM; in [18], greater than 100 µM; in assay [3], 83.5 µM; in assay [4], 89.6 µM; in assay [5], greater than 100 µM. Besides, the TGI in [6] was greater than 100 µM; in assay [7] it was 33.7 µM; in assay [8], 94.4 µM; in assay [9] it was 53.1 µM; in assay [19] it was greater than 100 µM; in assay [10], greater than 100 µM. Also, the TGI was greater than 100 µM in assay [11]; 69 µM in assay [12]; 56.6 µM in assay [13]; 36.2 µM in [14]; 43 µM in assay [16]; 51 µM in [17].

For `CCN(CC)CCCNc1nc(=O)[nH]c(C)c1C(=O)Nc1c2ccccc2nc2ccccc12`, the TGI is 44.2 µM in assay [1]; 56 µM in assay [2]; greater than 100 µM in [18]; 74.5 µM in assay [3]; 80.6 µM in assay [4]; 72.8 µM in assay [5]. In addition, the TGI in assay [6] was 60.9 µM; in assay [7], 13.3 µM; in [8], 72.6 µM; in assay [9], 51.3 µM; in assay [19], greater than 100 µM; in [10], 45.7 µM. For the same compound, the TGI is greater than 100 µM in assay [11]; 29 µM in assay [13]; greater than 100 µM in assay [14]; greater than 100 µM in assay [15]; 54.5 µM in assay [16]; 36.4 µM in [17].

On to `O=C(NNc1ccnc2cc(Cl)ccc12)/C(=C\c1ccccc1Cl)NC(=O)c1ccccc1`, for which the TGI in assay [1], in assay [2], in assay [18], in assay [3], in [4] and in assay [5] was greater than 100 µM each time. The TGI was 67.8 µM in assay [6]; greater than 100 µM in assay [7]; greater than 100 µM in assay [8]; greater than 100 µM in assay [9]; 73.7 µM in assay [10]; greater than 100 µM in assay [11]. The TGI in assay [12] was 85.1 µM; in [13] it was 81.2 µM; in assay [14], greater than 100 µM; in assay [15], 34 µM; in assay [16], greater than 100 µM; in assay [17], 70.9 µM.

On to `O=C1/C(=C/c2ccc(Cl)cc2)N=C(c2ccccc2)N1c1nc2ccccc2s1`, for which the TGI is greater than 100 µM in [2]; greater than 100 µM in assay [18]; greater than 100 µM in [3]; greater than 100 µM in assay [4]; greater than 100 µM in assay [5]; 18.4 µM in assay [6]. Further, the TGI is greater than 100 µM in [7]; greater than 100 µM in assay [8]; greater than 100 µM in assay [9]; 57.7 µM in assay [19]; greater than 100 µM in assay [10]; greater than 100 µM in assay [11]. The TGI in assay [12], in assay [13], in assay [15] and in [16] was greater than 100 µM throughout.

`CCOP(=O)(OCC)C(N)Cc1ccc(OC)c(OC)c1` (stereo unspecified): the TGI in assay [1], in assay [2], in assay [18], in [4], in [5] and in assay [6] was greater than 100 µM in each case. Further, the TGI in [7], in [8], in assay [9], in assay [19], in assay [10] and in assay [11] was greater than 100 µM in each case. The TGI in [12], in assay [13], in assay [14], in assay [15], in [16] and in assay [17] was greater than 100 µM each time.

In the case of `CCOC(=O)C(C)(C(=O)OCC)/C(Cl)=C\Cl`, the TGI in [1] was greater than 100 µM; in assay [2] it was greater than 100 µM; in assay [18], greater than 100 µM; in assay [3], greater than 100 µM; in assay [4], 0.988 µM; in assay [6], greater than 100 µM. For the same compound, the TGI in assay [7], in [8], in [9], in [19], in assay [10] and in assay [11] was greater than 100 µM each time. Besides, the TGI in assay [12], in assay [13], in assay [14], in assay [16] and in assay [17] was greater than 100 µM in each case.

Turning to `CC(=O)OC[C@@H]1[C@H]2CC[C@]3(C)[C@@H](OC(C)=O)CC[C@H]3[C@@H]2CC[C@H]1C1(C)SCCS1`, the TGI in assay [1], in assay [2], in assay [18], in assay [3], in assay [4] and in [5] was greater than 25 µM throughout. Besides, the TGI in [6], in assay [7], in assay [8], in [9], in [19] and in assay [10] was greater than 25 µM in each case. The TGI in assay [11], in [12], in assay [13], in assay [14], in assay [15] and in assay [16] was greater than 25 µM throughout.

As to `COc1ccc(/C=C2\N=C3Sc4c(nc[nH]c4=O)N3C2=O)cc1`, the TGI in assay [1], in [2], in assay [18], in assay [3], in [4] and in assay [5] was greater than 100 µM throughout. In addition, the TGI in assay [6], in [7], in [8], in assay [9], in [19] and in [10] was greater than 100 µM in each case. In addition, the TGI in assay [11], in [12], in assay [13], in assay [14], in assay [15] and in [16] was greater than 100 µM each time.
